Measurements as given in ChEMBL document CHEMBL3822368, “Further optimization of the M1 PAM VU0453595: Discovery of novel heterobicyclic core motifs with improved CNS penetration” (Bioorg Med Chem Lett, 2016).
Changes are numbered by the printed parent chain.

How the values were obtained:
[1] = target: T1, Muscarinic acetylcholine receptor M1 (Homo sapiens, UniProt P11229); assay: Positive allosteric modulation at human muscarinic acetylcholine receptor M1 assessed as effect on beta-arrestin recruitment
T1 sequence (P11229 whole entry): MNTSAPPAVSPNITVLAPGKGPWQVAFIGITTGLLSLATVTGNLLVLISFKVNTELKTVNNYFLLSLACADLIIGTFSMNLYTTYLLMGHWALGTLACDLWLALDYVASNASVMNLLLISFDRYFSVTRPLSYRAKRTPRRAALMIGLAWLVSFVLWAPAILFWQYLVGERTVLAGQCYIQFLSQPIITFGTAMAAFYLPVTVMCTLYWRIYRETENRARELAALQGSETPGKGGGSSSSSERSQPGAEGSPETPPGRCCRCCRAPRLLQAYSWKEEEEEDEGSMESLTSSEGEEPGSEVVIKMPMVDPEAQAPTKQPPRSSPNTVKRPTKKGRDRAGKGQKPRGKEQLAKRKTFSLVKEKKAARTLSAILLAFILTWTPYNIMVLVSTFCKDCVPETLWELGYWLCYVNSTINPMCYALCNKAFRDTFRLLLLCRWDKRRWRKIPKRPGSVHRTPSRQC

[2] = target: T1, Muscarinic acetylcholine receptor M1; assay: Positive allosteric modulation at human muscarinic acetylcholine receptor M1 assessed as effect on receptor internalization
CHO = assay: Selectivity ratio of EC50 for human muscarinic acetylcholine receptor M1 to EC50 for rat muscarinic acetylcholine receptor M1 expressed in CHO cells; type: cell-based
[3] = target: T2, Muscarinic acetylcholine receptor M1 (Rattus norvegicus, UniProt P08482); assay: Positive allosteric modulation at rat muscarinic acetylcholine receptor M1 expressed in CHO cells assessed as potentiation of acetylcholine-induced calcium mobilization; type: functional, cell-based
T2 sequence (P08482 whole entry): T1 sequence (P11229 whole entry) with A5V, T254S, P309S, R320K, A337G, I413V

[4] = target: T3, Muscarinic acetylcholine receptor M1 (Rattus norvegicus) (UniProt P08482); assay: Positive allosteric modulation at rat muscarinic acetylcholine receptor M1 expressed in CHO cells assessed as potentiation of acetylcholine-induced calcium mobilization in relative to acetylcholine; type: functional, cell-based
T3 sequence (whole entry): T1 sequence (P11229 whole entry) with A5V, T254S, P309S, R320K, A337G, I413V

[5] = target: T1, Muscarinic acetylcholine receptor M1; assay: Positive allosteric modulation at human muscarinic acetylcholine receptor M1 expressed in CHO cells assessed as potentiation of acetylcholine-induced calcium mobilization; type: functional, cell-based
[6] = Brain to plasma partition coefficient in Sprague-Dawley rat at 0.20 to 0.25 mg/kg, iv administered through cassette dosing after 0.25 hrs; type: ADME, organism-based; details: for Kp at 0.25 h: Sprague-Dawley, brain and plasma
[7] = Unbound brain to plasma partition coefficient in Sprague-Dawley rat at 0.20 to 0.25 mg/kg, iv administered through cassette dosing after 0.25 hrs; type: ADME, organism-based; details: brain and plasma; for Kp uu at 0.25 h: read-out: K(p,uu,brain)
[8] = Fraction unbound in rat plasma; type: ADME, cell-free
[9] = Fraction unbound in human plasma; type: ADME, cell-free
[10] = target: T4, Muscarinic acetylcholine receptor M1 (Homo sapiens) (UniProt P11229); assay: Positive allosteric modulation at human muscarinic acetylcholine receptor M1 expressed in CHO cells assessed as potentiation of acetylcholine-induced calcium mobilization relative to acetylcholine; type: functional, cell-based
T4 sequence (whole entry): T1 sequence (P11229 whole entry)

[11] = target: T4, Muscarinic acetylcholine receptor M1 (Homo sapiens); assay: Positive allosteric modulation at human muscarinic acetylcholine receptor M1 assessed as effect on beta-arrestin recruitment relative to acetylcholine
[12] = Fraction unbound in rat brain homogenate; type: ADME, tissue-based

SMILES	EC50 [1]	EC50 [2]	Ratio EC50 (CHO)	EC50 [3]	%max [4]	EC50 [5]	Kp at 0.25 h [6]	Kp uu at 0.25 h [7]	fraction unbound [8]	fraction unbound [9]	%max [10]	%max [11]	Kpuu at 0.25 h [7]	Kp ([6]; brain, 0.25 h, BLD = below limit of detection)	fraction unbound [12]
Cn1cc2c(-c3cc(F)c(Cn4cnc5cnccc5c4=O)c(F)c3)cccc2n1	0.98 µM	> 10 µM	2	4.7 µM	73%	5.3 µM	0.77	0.6	0.01	0.01	65%	33%			
Cn1cc2cc(-c3cc(F)c(Cn4c(=O)cnc5ncccc54)c(F)c3)ccc2n1				2.8 µM			1.64		0.04	0.04			1.1		
Cn1cc(-c2ccc(CN3Cc4ncccc4C3=O)c(F)c2)cn1	2.6 µM	> 10 µM	3	3.2 µM	75%	1.9 µM	0.3				79%	57%			
Cn1cc2c(-c3cc(F)c(Cn4cnc5ccccc5c4=O)c(F)c3)cccc2n1			2	4.7 µM	45%	> 10 µM	0.79	0.32	0.01	0.01					
Cn1cnc2ccc(-c3cc(F)c(Cn4cnc5cnccc5c4=O)c(F)c3)cc21				5.3 µM					0.04	0.06				BLD	
Cn1cc2c(-c3cc(F)c(CN4CCn5nccc5C4=O)c(F)c3)cccc2n1				> 10 µM											
Cn1cc2cc(-c3cc(F)c(CN4CCn5nccc5C4=O)c(F)c3)ccc2n1				1.7 µM	50%		0.4		0.06	0.05			0.7		0.098
Cn1cc2c(-c3cc(F)c(CN4CCc5ncccc5C4=O)c(F)c3)cccc2n1			2	4.3 µM	52%	> 10 µM	0.52	0.49	0.01	0.01					
Cn1cc2c(-c3cc(F)c(Cn4c(=O)cnc5ccccc54)c(F)c3)cccc2n1			2	4.9 µM	67%	> 10 µM	2.16	0.77	0.01	0.01					
Cn1cc2c(-c3cc(F)c(CN4C=CC5=NCCN5C4=O)c(F)c3)cccc2n1			2	1.7 µM	50%	> 10 µM	0.35	0.3	0.08	0.04					
O=c1c2ccncc2ncn1Cc1c(F)cc(-c2ccc3cnccc3c2)cc1F				6.1 µM			3.1		0.03	0.03			2.7		
